In brackets after ≈: the same amount, converted by molar mass. Read-outs that look alike come from different tables or passages of the source. Bounds are passed on as bounds.

The subject of data set [1] is E. coli ATCC 25922. The data set is described as follows: Microscopy-based AST (MAST): cell morphology at the MIC. Conditions: MAST, 2-hour incubation.
In data set [2] the test system is carbapenem-resistant Escherichia coli clinical isolates (blaKPC). The data set is described as follows: DDM (digital dispensing method) MIC testing of CRE isolates. In kind it is cell-based. The settings on record: for MIC: Escherichia coli, read-out: DDM modal MICs. How it is done: (§1) Bacterial strains: The 10 de-identified CRE clinical isolates used in the study were collected at our institution under Institutional Review Board-approved protocols and were sequenced through the carbapenem-resistant Enterobacteriaceae genome initiative at the Broad Institute (Cambridge, MA). All contained a Klebsiella pneumoniae carbapenemase (blaKPC) gene and were colony-purified, minimally passaged, and stored at -80° C. prior to use in this study.
(§2) After incubation, bacterial growth was quantified by measurement of OD600 using an Epoch (BioTek, Winooski, VT) or Spark 10 M microplate reader (Tecan, Morrisville, NC). An OD600 reading of 0.08 or greater (approximately twice typical background readings in wells containing broth alone) was considered indicative of bacterial growth (as also appreciable by visual assessment).
(§3) Precision and accuracy. […] Modal DDM MICs were calculated by taking the mode of all DDM MIC measurements obtained for a given antibiotic-strain combination, inclusive of initial MIC titrations and single-antibiotic rows/columns in synergy arrays (Table 5).

Data set [3] has as its system carbapenem-resistant Klebsiella pneumoniae clinical isolates (blaKPC). Described as above. Type of data set: cell-based. Conditions: for MIC: Klebsiella pneumoniae, read-out: DDM modal MICs. On the procedure:
as §1, §2, §3

The test system of data set [4] is eighty de-identified Enterobacteriaceae clinical isolates. The experiment in a line: organism not typed. In kind it is cell-based. The settings on record: eighty clinical isolates; reference microdilution; CLSI criteria, EUCAST for colistin. On the procedure: K. pneumonia BIDMC12A is a previously described, carbapenem resistant clinical isolate (14) expressing a KPC-3 carbapenemase. The eighty de-identified Enterobacteriaceae clinical isolates (Table 1) used for verification studies were collected at our institution under IRB-approved protocols. All strains were minimally passaged and stored at -80° C. prior to use in this study.
Verification study: Digital dispensing and reference method testing were performed in parallel using the same inoculum preparation. Microdilution reference panels were pre-prepared and stored at -80° C. until use (less than 2 weeks). D300 test method panels were prepared fresh each day of use.
Accuracy was evaluated using established guidelines (16, 17). The MIC determined by the digital dispensing method was compared with the MIC determined by the broth microdilution reference method. Essential agreement, overall essential agreement, and categorical agreement were evaluated as described in the precision study.
(Dilution methods test growth across graded concentrations, often in twofold steps.)

The conditions of data set [5]: in vivo; cited from earlier work.
In data set [6] the test system is S. aureus. The experiment in a line: Automated microscopy cell counting at inhibitory and sub-inhibitory antibiotic concentrations. Type of data set: cell-based, Staphylococcus aureus. Conditions: 4 hours. How it is done: We performed preliminary automated imaging experiments on the Cell Observer microscope (Zeiss, Oberkochen, Germany) (37° C., 640x magnification, DIC). For these experiments, we utilized E. coli ATCC 25922 and S. aureus ATCC 25923 (FIG. 5), prototypical Gram-negative and Gram-positive pathogens. […] Therefore, we conducted automated imaging of the center of 20 wells using 20-50 z-slices of approximately 1 µm thickness. Each image represented approximately 43,500 µm^2. After collapsing z-slices into a single image per well, cells were readily detectable and distributed evenly throughout the field at a density of 10-30 cells per 1000 µm^2 in all wells evaluated.
As proof of concept and preliminary data for image analysis-based direct cell counting, we utilized a machine learning algorithm (Trainable Weka as contained within the Fiji implementation of ImageJ) (Schindelin et al., Nature Methods 9:676-682 (2012)). A training set of 200 manually segmented S. aureus cells was used to establish a model for cell detection. This model accepts raw image data as input (FIG. 7A), classifies each pixel of an image as containing “cells” or “background” resulting in a segmented image (FIG. 7B). The segmented image is then converted to a black and white binary format. A watershed algorithm refines the segmentation by defining borders where two or more cells are in contact with one another and prevents later erroneous single counting of these otherwise fused objects (FIG. 7C). The particle analysis function of ImageJ is then used to identify particles >0.25 µm^2 as individual bacteria (FIG. 7D). Identified bacteria are subsequently counted and their aggregate surface area calculated.
Using our cell counting model, we compared images of S. aureus grown on inhibitory and sub-inhibitory concentrations of antibiotics. […] At the same time point we observed that E. coli cells in wells with sub-inhibitory concentrations of antimicrobial formed large microcolonies, making analysis of individual cells difficult. In cases where individual cells could not be segmented, a machine learning algorithm similar to that outlined in (d) reliably quantifies relative cell coverage in each field.

The subject of data set [7] is E. coli ATCC 25922. The data set is described as follows: MIC testing by broth microdilution and D300 digital dispensing (precision study). Conditions: Escherichia coli, ATCC25922, read-out: reference MIC.
The subject of data set [8] is P. mirabilis ATCC 702. The description is as above. The settings on record: Proteus mirabilis, ATCC702, read-out: reference MIC.
Data set [9] has as its system E. coli ATCC 25922. The settings on record: CLSI quality control range; cited from earlier work.

As to Gentamicin [Gentamicin (GEN)], in [1], the “cell morphology at the MIC” value is “blocked cell growth, but did not appreciably alter morphology”. Besides, the “DDM modal MICs” value in data set [2] (BIDMC 6, ECO, KPC type 2) is given as over 32 mg/L; in data set [2] (BIDMC 9, ECO, KPC type 2) it was over 32 mg/L; in [2] (BIDMC 15, ECO, KPC type 2), 64 mg/L; in [2] (BIDMC 17A, ECO, KPC type 2) it was over 32 mg/L; in data set [2] (BIDMC 20A, ECO, KPC type 3) it was 0.5 mg/L; in data set [3] (BIDMC 4, KPN, KPC type 3), 32 mg/L. The “DDM modal MICs” value in [3] (BIDMC 5, KPN, KPC type 3) is listed as 32 mg/L; in data set [3] (BIDMC 10, KPN, KPC type 3), 32 mg/L; in data set [3] (BIDMC 12A, KPN, KPC type 3), 1 mg/L; in data set [3] (BIDMC 18A, KPN, KPC type 2) it was 64 mg/L. Also, the “Non-susceptible strains (%)” value in [4] is on record as 31.3%. Besides, in [4], the Non-susceptible strains n is 25.
As for `C[C@H]1COc2c(N3CCN(C)CC3)c(F)cc3c(=O)c(C(=O)O)cn1c23` [LVX, levofloxacin], the MIC turned out to be 16 µg/mL in data set [2] (BIDMC 6, ECO, KPC type 2); 16 µg/mL in [2] (BIDMC 9, ECO, KPC type 2); 32 µg/mL in [2] (BIDMC 15, ECO, KPC type 2); 16 µg/mL in data set [2] (BIDMC 17A, ECO, KPC type 2); 32 µg/mL in data set [2] (BIDMC 20A, ECO, KPC type 3); 128 µg/mL in [3] (BIDMC 4, KPN, KPC type 3). Besides, the MIC in data set [3] (BIDMC 5, KPN, KPC type 3) is over 64 µg/mL; in data set [3] (BIDMC 10, KPN, KPC type 3), 16 µg/mL; in [3] (BIDMC 12A, KPN, KPC type 3), 32 µg/mL; in [3] (BIDMC 18A, KPN, KPC type 2), 64 µg/mL.
Take `CN(C)c1ccc(O)c2c1C[C@H]1C[C@H]3[C@H](N(C)C)C(O)=C(C(N)=O)C(=O)[C@@]3(O)C(O)=C1C2=O` [MIN, minocycline]: in [5], the serum concentrations result was “higher serum concentrations than tigecycline”. Further, in data set [5], the side effects result is listed as “generally favorable side-effect profile”. Also, the MIC in data set [2] (BIDMC 6, ECO, KPC type 2) is 1 µg/mL; in [2] (BIDMC 9, ECO, KPC type 2) it was 1 µg/mL; in [2] (BIDMC 15, ECO, KPC type 2) it was 1 µg/mL; in [2] (BIDMC 17A, ECO, KPC type 2) it was 1 µg/mL; in data set [2] (BIDMC 20A, ECO, KPC type 3), 4 µg/mL; in data set [3] (BIDMC 4, KPN, KPC type 3) it was 8 µg/mL. Also, the MIC was found to be 16 µg/mL in [3] (BIDMC 5, KPN, KPC type 3); 4 µg/mL in data set [3] (BIDMC 10, KPN, KPC type 3); 4 µg/mL in [3] (BIDMC 12A, KPN, KPC type 3); 2 µg/mL in data set [3] (BIDMC 18A, KPN, KPC type 2).
For the molecule `O=C(O)c1cn(C2CC2)c2cc(N3CCNCC3)c(F)cc2c1=O` [Ciprofloxacin (CIP), Ciprofloxacin], the “cell morphology at the MIC” value in data set [1] was “elongated cells that failed to divide”.
On to `CO[C@H]1/C=C/O[C@@]2(C)Oc3c(C)c(O)c4c(O)c(c(/C=N/N5CCN(C)CC5)c(O)c4c3C2=O)NC(=O)/C(C)=C\C=C\[C@H](C)[C@H](O)[C@@H](C)[C@@H](O)[C@@H](C)[C@H](OC(C)=O)[C@@H]1C` [RIF, rifampin], for which the MIC in data set [2] (BIDMC 6, ECO, KPC type 2) is 16 µg/mL; in data set [2] (BIDMC 9, ECO, KPC type 2) it was 16 µg/mL; in data set [2] (BIDMC 15, ECO, KPC type 2) it was 32 µg/mL; in [2] (BIDMC 17A, ECO, KPC type 2), 32 µg/mL; in data set [2] (BIDMC 20A, ECO, KPC type 3) it was 16 µg/mL; in data set [3] (BIDMC 4, KPN, KPC type 3), 32 µg/mL. Besides, the MIC in [3] (BIDMC 5, KPN, KPC type 3) worked out at 32 µg/mL; in [3] (BIDMC 10, KPN, KPC type 3), 32 µg/mL; in data set [3] (BIDMC 12A, KPN, KPC type 3), 32 µg/mL; in data set [3] (BIDMC 18A, KPN, KPC type 2), 16 µg/mL.
`CN(C)c1cc(NC(=O)CNC(C)(C)C)c(O)c2c1C[C@H]1C[C@H]3[C@H](N(C)C)C(O)=C(C(N)=O)C(=O)[C@@]3(O)C(O)=C1C2=O` [tigecycline]: in data set [5], the side effects entry is “significant rates of nausea and vomiting”; the urinary excretion entry is “limited urinary excretion”.
As for `O=C(N[C@H](CO)[C@H](O)c1ccc([N+](=O)[O-])cc1)C(Cl)Cl` [CHL, chloramphenicol], the MIC in [2] (BIDMC 6, ECO, KPC type 2) was 8 µg/mL; in data set [2] (BIDMC 9, ECO, KPC type 2) it was 8 µg/mL; in data set [2] (BIDMC 15, ECO, KPC type 2) it was 8 µg/mL; in data set [2] (BIDMC 17A, ECO, KPC type 2), 8 µg/mL; in data set [2] (BIDMC 20A, ECO, KPC type 3) it was 16 µg/mL; in data set [3] (BIDMC 10, KPN, KPC type 3), over 64 µg/mL. Besides, the MIC in [3] (BIDMC 12A, KPN, KPC type 3) was found to be 64 µg/mL.
As to `CC1(C)S[C@@H]2[C@H](NC(=O)[C@H](N)c3ccccc3)C(=O)N2[C@H]1C(=O)O` [Ampicillin (AMP), Ampicillin], in data set [6] (0.5 × the MIC), the “area occupied by cells” value is given as 555 µm^2 and the cells detected came to 242 cells. Moreover, in data set [6], the “reduction of cell numbers at the MIC vs 0.5 × the MIC” value stood at 5 fold. Moreover, in data set [6] (at the MIC), the “area occupied by cells” value was 47 µm^2 and the cells detected was found to be 51 cells. In data set [4], the “Non-susceptible strains (%)” value was determined as 81.3% and the Non-susceptible strains n is 65.
As to `C[C@@H]1O[C@@H]1P(=O)(O)O` [FOF, fosfomycin], the MIC in data set [2] (BIDMC 6, ECO, KPC type 2) was 0.5 µg/mL; in [2] (BIDMC 9, ECO, KPC type 2), 0.5 µg/mL; in data set [2] (BIDMC 15, ECO, KPC type 2) it was 0.5 µg/mL; in data set [2] (BIDMC 17A, ECO, KPC type 2), 0.5 µg/mL; in data set [2] (BIDMC 20A, ECO, KPC type 3), 1 µg/mL; in [3] (BIDMC 4, KPN, KPC type 3), 128 µg/mL. For the same molecule, the MIC in [3] (BIDMC 5, KPN, KPC type 3) came out at 8 µg/mL; in [3] (BIDMC 10, KPN, KPC type 3), 64 µg/mL; in data set [3] (BIDMC 12A, KPN, KPC type 3), 8 µg/mL; in data set [3] (BIDMC 18A, KPN, KPC type 2), 4 µg/mL.
Turning to `Cc1nnc(SCC2=C(C(=O)O)N3C(=O)[C@@H](NC(=O)Cn4cnnn4)[C@H]3SC2)s1` [Cefazolin (CFZ), Cefazolin], the MIC was 2 µg/mL (≈ 4.4 µM) in data set [7] and 4 µg/mL (≈ 8.8 µM) in data set [8]. In addition, the “quality control range (MIC)” value in data set [9] was 1 to 4 µg/mL.
Take `CN(C)[C@@H]1C(O)=C(C(N)=O)C(=O)[C@@]2(O)C(O)=C3C(=O)c4c(O)cccc4[C@@](C)(O)[C@H]3C[C@@H]12` [Tetracycline (TET), Tetracycline]: in data set [4], the “Non-susceptible strains (%)” value worked out at 42.5% and the Non-susceptible strains n is listed as 34.
